# Test results from US8865747B2, “Pioglitazone for use in the treatment of adrenoleukodystrophy” (Fundació Institut D'Investigació Biomèdica de Bellvitge …, priority 2012, dated 2014).
# Entries after “also recorded” stand apart in the source; their conditions may differ.
# Assays:
# [1] = Yamada T. et al. 2000; cited from earlier work
# X-ALD patients = conditions: recent study in X-ALD patients; cited from earlier work
# Abcd1-null mice [2] = assay: Western blot of mitochondrial and antioxidant proteins in spinal cord; format: in vivo, mouse; conditions: Abcd1− mice fed 2 months with pioglitazone
# Text: The following antibodies were used for Western Blots: anti-mouse NADH-ubiquinol oxidoreductase (NDUFB8: complex I): dilution 1/2000 (Molecular Probes); anti-mouse anti-Porin 31HL (VDAC or Voltage Dependant Anion Channel): dilution 1/1000 (Calbiochem); anti-rabbit DNP: dilution 1/100 (Invitrogen); anti-mouse PGC-1a: dilution 1/1000 (ST1202, Calbiochem); anti-rabbit SIRT1 for mouse: dilution 1/500 (12193, Abcam); anti-rabbit SIRT1 for human: dilution 1/500 (32441, Abcam) and anti-mouse γ-tubulin: dilution 1/5000 (T6557, clone GTU-88, Sigma). Goat anti-rabbit IgG linked to horseradish peroxidase, dilution: 1/15000 (P0448, Dako, Glostrup, Denmark) and Goat anti-mouse IgG linked to horseradish peroxidase, dilution: 1/15000 (G21040, Invitrogen) have been used as secondary antibodies.
# (§1) Pioglitazone (Actos®) was mixed into AIN-76A chow from Dyets (Bethlehem, Pa.) at 0.012% w/w, corresponding to a dose of 9 mg/kg/day per mice [Yan Q. et al., J. Neurosci. 2003, 23, 7504-7509]. […] .
# Tissues were removed from euthanized mice and flash-frozen on liquid nitrogen. Frozen tissues were homogenized in RIPA buffer boiled for 5 min and centrifuged. We measured protein concentration of the supernatant with a BCA (bicinchoninic acid) Protein Assay Kit (Pierce). 10 to 100 μg were loaded onto each lane of 10% polyacrylamide gels for 60 min at […]. Resolved proteins were transferred to nitrocellulose. Proteins were detected with ECL western blotting analysis system (Amersham Biosciences).
# Abcd1-null mice [3] = assay: Relative gene expression by quantitative RT-PCR in spinal cord; format: in vivo, mouse; conditions: Abcd1− mice fed 2 months with pioglitazone, 12 months of age, FIG. 12
# Method: as §1
# First tissues were lysed using Trizol reagent (Invitrogen), then total RNA was extracted using RNeasy Kit (Qiagen). Lysis and extraction were performed according to the manufacturer's instructions. Total DNA from tissues was extracted using Gentra Puregene Tissue Kit (Qiagen) according to the manufacturer's instructions.
# […] of RNA was transcribed into cDNA using Superscript II reverse transcription reagents in a final volume of 25 μl (Invitrogen). A TaqMan real time PCR was performed within the ABI PRISM 7300HT sequence detection system using the TaqMan Universal PCR master mix and the standardized primers for mouse SIRT1 (Mm00490758) PGC-1α (Mm00447183), PGC-1β (Mm01258518), ERRα (Mm00433143), NRF-1 (Mm00447996), TFAM (Mm00447485), TFB1M (Mm00524825) and TFB2M (Mm01620397). To measure gene expression and mtDNA abundance 0.1 to 0.2 μl of cDNA and 100 ng of DNA were respectively used.
# To quantify mouse and human mtDNA content, two probes (mouse cytochrome b (cytb) (Gene ID: 17711) and human cytochrome c […] subunit II (COXII) (Gene ID: 4513) were respectively designed (Custom TaqMan Gene Expression Assays; Applied Biosystems). The sequences for mouse cytb primers were: […] (SEQ ID NO: 1) (forward) and […] (SEQ ID NO: 2) (reverse) and the FAM-labeled probe was TTGCAACTATAGCAACAG (SEQ ID NO: 3). The sequences for human COXII primers were: […] (SEQ ID NO: 4) (forward) and […] (SEQ ID NO: 5) (reverse) and the FAM-labeled probe was AAATCTGTGGAGCAAACC (SEQ ID NO: 6). Quantification of mtDNA was referred to nuclear DNA as determined by the amplification of the intronless nuclear gene C/EBPα. (Mouse and human CEBPα are respectively: Mm00514283, Hs00269972.). Each sample was run in duplicate, and the mean value of the duplicate was used to calculate the mRNA expression of the genes of interest which were normalized to that of the reference control (18S, Hs99999901) using the comparative (2^−ΔCt) method, according to the manufacturer's instructions.
# SIRT1 [4] = assay: SIRT1 immunoprecipitation and carbonyl (DNPH) measurement in spinal cord; format: in vivo, mouse; conditions: Abcd1− mice fed 2 months with pioglitazone, 12 months of age, FIG. 13
# Method: as §1
# Since the specific carbonylated SIRT1 antibody is not available, SIRT1 has been immunoprecipitated to measure carbonyl levels, as earlier described [Caito S. et al., Faseb J. 2010, 24, 3145-3159]. Protein (200 μg) extracted from whole spinal cord in a final volume of 400 μl RIPA buffer was incubated for 1 h with SIRT1 antibody [12193, (Abcam)] ((Abcam, 12193), dilution 1:80). Protein A sepharose (Amersham) was suspended in PBS for 1 h then blocked in BSA (1%) for 1 h. Protein A sepharose (50 μl ) was added to each sample and left overnight at 4° C. on a rotator. The samples are then centrifuged at 13,000 rpm at 4 ° C. for 5 min. […] Neural. 2011, 70, 84-92].
# SIRT1 [5] = assay: SIRT1 fluorometric activity assay on spinal cord protein; format: in vivo, mouse; conditions: Abcd1− mice fed 2 months with pioglitazone, 12 months of age, FIG. 13
# Method: as §1
# We used a SIRT1 fluorometric assay kit (BIOMOL) based on the generation of a fluorophore via the NADtdependent deacetylation by SIRT1 of its substrate, which is a peptide comprising amino acids 379-382 of human p53 (Arg-His-Lys-Lys(Acetyl) (SEQ ID NO: 7) [Howitz K. T. et al., Nature 2003, 425, 191-196; and Vaziri H. et al., Cell 2001, 107, 149-159]. The assay's fluorescence signal is generated in proportion to the amount of Lys-382 deacetylation [Chabi B. et al., J. Appl. Physiol. 2009, 107, 1730-1735]. Briefly, 25 μg of total protein were incubated with Fluor de Lys-Sirt1 substrate (100 μM) and NAD^+ (100 μM) at 37° C. for 30 min in a final volume of 50 μl. The reaction was stopped by the addition of 50 μl of developer reagent and nicotinamide (2 mM) and the fluorescence was subsequently monitored for 30 min at 360 nm (excitation) and 460 nm (emission).
# Abcd1-null mice [6] = assay: ATP levels, NAD-NADH determination and pyruvate kinase activity in spinal cord; format: in vivo, mouse; conditions: Abcd1− mice fed 2 months with pioglitazone, 12 months of age
# Method: as §1
# To determine ATP levels, mice were sacrificed by cervical dislocation and spinal cords immediately frozen in liquid nitrogen and stored at −80° C. ATP was extracted with cold perchloric acid (10%) from 10 mg of spinal cord, neutralized with KOH and centrifugated [Khan H. A. et al., J. Biosci. 2003, 28, 379-382]. Then, ATP concentrations were quantified in triplicate per animal using the ATPlite 1 step (PerkinElmer) according to the manufacturer's protocol. Data were normalized to mg of proteins. All assays were performed in triplicate.
# NAD^+ and NADH were quantified by the NAD cycling assay and pyruvate kinase activity was determined by a spectrophotometrical method as previously described [Galino J. et al., Antiox. Redox Signal 2011, 15, 2095-2107].
# Abcd1-null mice [7] = assay: GC/MS measurement of oxidative lesion markers in spinal cord proteins; format: in vivo, mouse; conditions: Abcd1− mice fed 2 months with pioglitazone, FIG. 15a
# Method: as §1
# [8] = Weight and food intake during dietary treatment; format: in vivo, mouse; conditions: both protocols of treatment (Abcd1-null 2 months; DKO 4 months), 9 mg/kg/day in chow
# Method: Pioglitazone (Actos®) was mixed into AIN-76A chow from Dyets (Bethlehem, Pa.) at 0.012% w/w, corresponding to a dose of 9 mg/kg/day per mice [Yan Q. et al., J. Neurosci. 2003, 23, 7504-7509]. […] Neurol. […] Mol. Genet. […] Mol. Genet. […] Mol. Genet. 2005, 14, 3565-3577].
# [9] = system: Abcd1−/Abcd2−/− (DKO) mice; assay: Horizontal bar cross test; conditions: after 2 months of treatment, FIG. 19
# Method: We set up a preclinical trial to assess the effect of pioglitazone on the progression of clinical signs using DKO null mice as the model Animals were randomly assigned to one of the following groups.
# The bar cross test was carried out using a wooden bar of 100 cm in length and 2 cm in width (diameter). This bar is just wide enough for the mice to stand on with their hind feet hanging over the edge such that any slight lateral misstep will result in a slip. […] Bar cross test was performed basically as previously described [Lopez-Erauskin J. et al., Ann.
# Mice were evaluated by the treadmill test and the bar-cross at the start and re-scored after 2 (i.e 15 months of age), and 4 months (i.e. 17 months of age) of the treatment.
# [10] = system: Abcd1−/Abcd2−/− (DKO) mice; assay: Immunohistochemistry / histology of dorsal spinal cord (axonal degeneration); conditions: pioglitazone 4 months (13 to 17 months of age)
# Text: We set up a preclinical trial to assess the effect of pioglitazone on the progression of clinical signs using DKO null mice as the model Animals were randomly assigned to one of the following groups. […] We treated animals for 4 months starting at 13 months of age in order to start treatment at the onset of clinical signs [Lopez-Erauskin J. et al., Ann.
# Spinal cords were harvested from 18 month-old wild type (WT), Abcd1^−/Abcd2^−/− (DKO) and Abcd1^−/Abcd2^−/− fed with pioglitazone for 4 months (DKO+PIO), after perfusion with PFA 4%, basically as described [Lopez-Erauskin J. et al., Ann. […] Spinal cords were embedded in paraffin and serial sections, 5 μm thick, were cut in a transversal or longitudinal plane.
# The number of abnormal specific profiles was counted at every 10 sections for each particular stain. At least three sections corresponding to the dorsal columns of the spinal cord were analysed per animal and per stain. Results were expressed as mean values±standard deviations.
# Immunohistochemistry experiments were performed.
# [11] = spinal cord, 12 months of age, FIG. 11
smiles,measurement,setting,value
CC[C@H](C)C(=O)O[C@H]1C[C@@H](C)C=C2C=C[C@H](C)[C@H](CC[C@@H]3C[C@@H](O)CC(=O)O3)[C@H]21 [Lovastatin],effect in vitro,[1],some effect
"CCCC(CCC)C(=O)O [VPA, valproic acid]",adverse effects,X-ALD patients,adverse effects such as trembling
"CCc1ccc(CCOc2ccc(CC3SC(=O)NC3=O)cc2)nc1 (racemic) [pioglitazone, 5-(4-[2-(5-ethylpyridin-2-yl)ethoxy]benzyl)thiazolidine-2,4-dione]",GPX1 protein level,Abcd1-null mice [2]; FIG. 15b,normalized
same,NDUFB8 protein level,Abcd1-null mice [2]; [11],increased
same,VDAC protein level,Abcd1-null mice [2]; [11],increased
same,NRF1 mRNA,Abcd1-null mice [3],increased
same,SIRT1 expression,Abcd1-null mice [3],no effect
same,TFAM mRNA,Abcd1-null mice [3],increased
same,expression of PGC-1α mRNA,Abcd1-null mice [3],increased
same,levels of carbonylation on SIRT1 protein (SIRT1 oxidation),SIRT1 [4],lowered; also recorded: normalized
same,SIRT1 activity,SIRT1 [5],rescued; also recorded: normalized
same,ATP levels,Abcd1-null mice [6]; FIG. 14a,normalised
same,NADH levels,Abcd1-null mice [6]; FIG. 14b,normalised
same,activity of pyruvate kinase,Abcd1-null mice [6]; FIG. 14c,normalised
same,AASA content,Abcd1-null mice [7],normalized
same,CEL (glycoxidative) content,Abcd1-null mice [7],normalized
same,GSA content,Abcd1-null mice [7],normalized
same,MDAL (lipoxidative) content,Abcd1-null mice [7],normalized
same,food intake,[8],no effect
same,weight,[8],no effect
same,number of slips,[9],full normalisation
same,time used to cross the bar,[9],full normalisation
same,number of reactive astrocytes,[10]; FIG. 16,strikingly reduced to control levels
same,number of reactive microglia,[10]; FIG. 16,strikingly reduced to control levels
same,"accumulation of markers of axonal damage (APP, synaptophysin in axonal swellings)","[10]; FIG. 16, 17",strikingly reduced to control levels
